Experimental data as given in paper PMC6330093 (Bioconjugate chemistry, 2017).

Legend:
proteinase K = proteinase K (Parengyodontium album, UniProt P06873); test: HPLC-based proteolysis assay with proteinase K; type: in vitro ADME
[1] = variable temperature CD, 50 μM protein, 20 mM sodium phosphate buffer, pH 7

proteinase K, sequence (P06873 106-384, species assumed): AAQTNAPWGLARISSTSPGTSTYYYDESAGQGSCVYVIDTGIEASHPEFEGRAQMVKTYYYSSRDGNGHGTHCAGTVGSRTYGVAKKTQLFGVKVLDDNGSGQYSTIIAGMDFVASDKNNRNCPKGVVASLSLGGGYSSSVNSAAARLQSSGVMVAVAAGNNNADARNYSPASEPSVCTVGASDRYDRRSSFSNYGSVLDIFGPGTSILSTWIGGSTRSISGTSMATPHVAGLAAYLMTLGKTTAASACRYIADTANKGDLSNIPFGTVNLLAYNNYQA

Compound	k, apparent proteolysis rate constant (proteinase K)	Tm (melting temperature) [1]
CC[C@H](C)[C@H](NC(=O)[C@H](Cc1c[nH]cn1)NC(=O)[C@H](CC(N)=O)NC(=O)[C@H](Cc1ccccc1)NC(=O)[C@H](Cc1ccc(O)cc1)NC(=O)[C@H](Cc1ccc(O)cc1)NC(=O)[C@@H](NC(=O)[C@H](CCCNC(=N)N)NC(=O)CNC(=O)[C@H](CO)NC(=O)[C@H](CCC(N)=O)NC(=O)[C@H](CCCNC(=N)N)NC(=O)[C@H](CO)NC(=O)[C@H](CCSC)NC(=O)[C@H](CCCNC(=N)N)NC(=O)[C@H](CCCCN)NC(=O)[C@H](CCC(=O)O)NC(=O)[C@H](Cc1c[nH]c2ccccc12)NC(=O)CNC(=O)[C@@H]1CCCN1C(=O)[C@@H]1CCCN1C(=O)[C@H](CC(C)C)NC(=O)[C@@H](N)CCCCN)C(C)C)C(=O)N[C@H](C(=O)N[C@@H](CC(N)=O)C(=O)N[C@@H](C)C(=O)N[C@@H](CO)C(=O)N[C@@H](CCC(N)=O)C(=O)N[C@@H](Cc1ccccc1)C(=O)N[C@@H](CCC(=O)O)C(=O)N[C@@H](CCCNC(=N)N)C(=O)N1CCC[C@H]1C(=O)N[C@@H](CO)C(=O)NCC(=O)O)[C@@H](C)O [18Q]	7.8 ±0.4 s^−1 × 10^3	58.5 ±0.2 °C
CC[C@H](C)[C@H](NC(=O)[C@H](Cc1c[nH]cn1)NC(=O)[C@H](CC(N)=O)NC(=O)[C@H](Cc1ccccc1)NC(=O)[C@H](Cc1ccc(O)cc1)NC(=O)[C@H](CCC(N)=O)NC(=O)[C@@H](NC(=O)[C@H](CCCNC(=N)N)NC(=O)CNC(=O)[C@H](CO)NC(=O)[C@H](CO)NC(=O)[C@H](CCCNC(=N)N)NC(=O)[C@H](CO)NC(=O)[C@H](CCSC)NC(=O)[C@H](CCCNC(=N)N)NC(=O)[C@H](CCCCN)NC(=O)[C@H](CCC(=O)O)NC(=O)[C@H](Cc1c[nH]c2ccccc12)NC(=O)CNC(=O)[C@@H]1CCCN1C(=O)[C@@H]1CCCN1C(=O)[C@H](CC(C)C)NC(=O)[C@@H](N)CCCCN)C(C)C)C(=O)N[C@H](C(=O)N[C@@H](CC(N)=O)C(=O)N[C@@H](C)C(=O)N[C@@H](CO)C(=O)N[C@@H](CCC(N)=O)C(=O)N[C@@H](Cc1ccccc1)C(=O)N[C@@H](CCC(=O)O)C(=O)N[C@@H](CCCNC(=N)N)C(=O)N1CCC[C@H]1C(=O)N[C@@H](CO)C(=O)NCC(=O)O)[C@@H](C)O [23Q]	46.9 ±5.3 s^−1 × 10^3	39.4 ±0.2 °C
CC[C@H](C)[C@H](NC(=O)[C@H](CCC(N)=O)NC(=O)[C@H](CC(N)=O)NC(=O)[C@H](Cc1ccccc1)NC(=O)[C@H](Cc1ccc(O)cc1)NC(=O)[C@H](Cc1ccc(O)cc1)NC(=O)[C@@H](NC(=O)[C@H](CCCNC(=N)N)NC(=O)CNC(=O)[C@H](CO)NC(=O)[C@H](CO)NC(=O)[C@H](CCCNC(=N)N)NC(=O)[C@H](CO)NC(=O)[C@H](CCSC)NC(=O)[C@H](CCCNC(=N)N)NC(=O)[C@H](CCCCN)NC(=O)[C@H](CCC(=O)O)NC(=O)[C@H](Cc1c[nH]c2ccccc12)NC(=O)CNC(=O)[C@@H]1CCCN1C(=O)[C@@H]1CCCN1C(=O)[C@H](CC(C)C)NC(=O)[C@@H](N)CCCCN)C(C)C)C(=O)N[C@H](C(=O)N[C@@H](CC(N)=O)C(=O)N[C@@H](C)C(=O)N[C@@H](CO)C(=O)N[C@@H](CCC(N)=O)C(=O)N[C@@H](Cc1ccccc1)C(=O)N[C@@H](CCC(=O)O)C(=O)N[C@@H](CCCNC(=N)N)C(=O)N1CCC[C@H]1C(=O)N[C@@H](CO)C(=O)NCC(=O)O)[C@@H](C)O [27Q]	10.8 ±0.2 s^−1 × 10^3	56.4 ±0.2 °C
CC[C@H](C)[C@H](NC(=O)[C@H](Cc1c[nH]cn1)NC(=O)[C@H](CC(N)=O)NC(=O)[C@H](Cc1ccccc1)NC(=O)[C@H](Cc1ccc(O)cc1)NC(=O)[C@H](Cc1ccc(O)cc1)NC(=O)[C@@H](NC(=O)[C@H](CCCNC(=N)N)NC(=O)CNC(=O)[C@H](CO)NC(=O)[C@H](CO)NC(=O)[C@H](CCCNC(=N)N)NC(=O)[C@H](CO)NC(=O)[C@H](CCSC)NC(=O)[C@H](CCCNC(=N)N)NC(=O)[C@H](CCCCN)NC(=O)[C@H](CCC(=O)O)NC(=O)[C@H](Cc1c[nH]c2ccccc12)NC(=O)CNC(=O)[C@@H]1CCCN1C(=O)[C@@H]1CCCN1C(=O)[C@H](CC(C)C)NC(=O)[C@@H](N)CCCCN)C(C)C)C(=O)N[C@@H](CCC(N)=O)C(=O)N[C@@H](CC(N)=O)C(=O)N[C@@H](C)C(=O)N[C@@H](CO)C(=O)N[C@@H](CCC(N)=O)C(=O)N[C@@H](Cc1ccccc1)C(=O)N[C@@H](CCC(=O)O)C(=O)N[C@@H](CCCNC(=N)N)C(=O)N1CCC[C@H]1C(=O)N[C@@H](CO)C(=O)NCC(=O)O [29Q]	47.2 ±2.6 s^−1 × 10^3	45.3 ±0.5 °C
